Source: patent US11932908B2, “Compositions and methods for diagnosis and treatment of epilepsy” (THE REGENTS OF THE UNIVERSITY OF CALIFORNIA, priority 2004, dated 2024)
Numbering of substitutions follows the chain as printed. Numbers in names are those of the source. Entries after “also recorded” stand apart in the source; their conditions may differ. Like-named read-outs stand apart in the source and are kept apart here.

Tests used:
[1] = test system: JME seizures; details: JME patients, cited from earlier work
[2] = cited from earlier work
[3] = test system: T type VDCC; details: cited from earlier work
[4] = test system: L-type HVDCC; details: cited from earlier work
[5] = biological target: P type HVDCC (Homo sapiens, UniProt O00555); details: cited from earlier work
[6] = biological target: N type HVDCC (Homo sapiens, UniProt Q00975); details: cited from earlier work
[7] = test system: high voltage activated calcium currents (HVDCC); details: cited from earlier work
[8] = test system: EFHC1-transfected hippocampal primary culture neurons; assay: Cell death analyses with VDCCs inhibitors; assay type: cell-based, mouse
Method: Cell death analyses with VDCCs inhibitors. Dissociated hippocampal primary culture neurons from embryonic day 16 mice were seeded in 24 well plates containing poly-L-lysine coated coverslips (5×10^4 cells/well). Neurons were transfected with pEGFP-EFHC1 on day 6 in vitro with antagonists and fixed 48 hours post transfection. Calcium channel inhibitors, ω-Agatoxin IVA (PEPTIDE […], INC.) for P-type (Cav2.1), ω-Conotoxin GVIA (PEPTIDE […], INC.) for N-type (Cav2.2), SNX-482 (PEPTIDE […], INC.) for R-type (Cav2.3), flunarizine (Nacalai Tesque) for T-type and nifedipine (SIGMA) for L-type VDCC, were added directly to neuronal culture 3 hrs post transfection.

[9] = biological target: T1, PQ type VDCC (Cav2.1) (Oryctolagus cuniculus, UniProt P27884); assay: Patch-clamp analyses of HEK cell line with P/Q type VDCCs and wild type EFHC1 or mutant constructs; assay type: cell-based; details: for Activation V0.5 (mV): half-maximal voltage of activation; for Activation V0.5 (mV) / Inactivation V0.5 (mV) / Activation k (mV) / Inactivation K (mV): mean ± SEM; for Inactivation V0.5 (mV): half-maximal voltage of inactivation; for Activation k (mV) / Inactivation K (mV): slope factor
T1 construct: expressed in transfected cells; host or cells: HEK cell line

[10] = test system: mouse hippocampal primary culture neurons; details: 24, 36 and 48 hours after transfection; mutants compared to wild-type EFHC1
Method: Mouse hippocampal neurons primary culture. Hippocampal neurons were isolated from embryonic day 16 mice and plated at 1-2×10^5 cells per well in 24 well plate containing glass coverslips coated with poly-1-lysine and grown in serum-free NEUROBASAL™ media supplemented with B27, 0.5 mM L-glutamine (Invitrogen).
Transfection and immunostaining of mouse hippocampal neurons. […] Cultures were fixed with 4% paraformaldehyde in PBS 16 and 48 hours after transfection, permeabilized with 0.3% Triton X-100, blocked in 3% normal goat serum in PBS, and treated with mouse monoclonal anti-MAP-2 antibody (1:500; Sigma) and Alexa fluor 594 goat anti-mouse IgG antibody (1:1000; Molecular Probes).
TUNEL assay. […] Forty-eight hours after transfection, neuronal apoptosis was detected using DeadEndTM Fluorometric TUNEL System (Promega). Nuclei were visualized with Hoescht 33342 (Molecular Probes). These cells were also stained with anti-Myc antibody (1:200; Cell Signaling) and Alexa fluor 594 goat anti-rabbit IgG antibody (1:1000). All experiments were carried out in duplicate wells and at least repeated three times. Neuron cells were observed on a confocal microscope (OLYMPUS FLUOVIEW) following 48 hours post transfection.
Cell death analyses with EFHC1 mutants. […] Surviving cell numbers were scored by counting GFP fluorescent-positive cells that attached to dishes. At each counting, detached cells (dead cells) were carefully removed by changing culture medium. Morphologies of cells (cell shape, length and number of neurites, shrinkage, etc.) were not considered for the counting. Surviving cell numbers were scored at 24, 36, and 48 hours after transfection. Analyses were repeated twice by using two independently prepared expression construct DNAs. In total, neurons in seven wells of 24 well plates were counted for each transfection and time point. Experiments were performed in a blinded fashion.

[11] = biological target: T2, R-type VDCC (Cav2.3) (Oryctolagus cuniculus, UniProt Q02343); assay: Patch-clamp analyses of BHK cells stably expressing Cav2.3 transfected with EFHC1 constructs; assay type: cell-based; details: whole cell patch-clamp, 24-48 hr after transfection
T2 construct: expressed in transfected cells; host or cells: BHK (BII-104-2) cells
Method: Electrophysiological analysis. A baby hamster kidney (BHK) cell line BHK (BII-104-2) stably transfected with the ociE (BII), α2/δ and β1a subunits, were cultured in DMEM medium containing 10% fetal bovine serum (FBS), 30 U/mL penicillin and 30 μg/mL streptomycin. To transiently express wild type or mutant EFHC1, BHK (BII-104-2) cells were transfected with the pEGFP-C2 plasmids (Clonetech) containing EGFP fused with cDNA for EFHC1 or its mutants using SuperFect Transfection Reagent (QIAGEN). For control experiments, EGFP was transiently expressed by transfecting BHK (BII-104-2) with the same amount of pEGFP without the EFHC1 inserts. Cells were trypsinized, diluted with the DMEM medium, and plated onto glass coverslips 18 hrs after transfection. Ca^2+ currents were recorded 24-48 hr after transfection from GFP-positive cells. Currents from BHK (BII-104-2) cells were recorded at room temperature (22-25° C.) using patch-clamp techniques of whole cell mode with an EPC-9 amplifier (HEKA, Germany). Patch pipettes were made from borosilicate glass capillaries (1.5 mm outer diameter and 0.87 mm inner diameter; Hilgenberg) by using a model P-97 Flaming-Brown micropipette puller (Sutter Instrument Co., CA). Pipette resistance ranged from 2 to 3 MΩ when filled with the pipette solutions described below. The series resistance was electronically compensated to >70% and both the leakage and the remaining capacitance were subtracted by −P/6 method. Currents were sampled at 100 kHz in activation kinetics, otherwise sampled at 50 kHz and filtered at 10 kHz. Calcium currents were recorded in an external solution that contained (in mM): 3 CaCl2, 148 tetraethylammonium chloride (TEA-C1), 10 glucose, and 10 HEPES, pH adjusted to 7.4 with Tris-OH. The pipette solution contained (in mM): 85 Cs-aspartate, 40 CsCl, 4 MgCl2, 5 EGTA, 2 ATP2Na, 5 HEPES, and 8 creatine-phosphate, pH adjusted to 7.4 with CsOH. To determine voltage-dependence of activation, amplitude of tail currents at −50 mV after 5 ms test pulse (−40 to 90 mV) was normalized to the maximal tail current amplitude. […]

T1 sequence (P27884 whole entry): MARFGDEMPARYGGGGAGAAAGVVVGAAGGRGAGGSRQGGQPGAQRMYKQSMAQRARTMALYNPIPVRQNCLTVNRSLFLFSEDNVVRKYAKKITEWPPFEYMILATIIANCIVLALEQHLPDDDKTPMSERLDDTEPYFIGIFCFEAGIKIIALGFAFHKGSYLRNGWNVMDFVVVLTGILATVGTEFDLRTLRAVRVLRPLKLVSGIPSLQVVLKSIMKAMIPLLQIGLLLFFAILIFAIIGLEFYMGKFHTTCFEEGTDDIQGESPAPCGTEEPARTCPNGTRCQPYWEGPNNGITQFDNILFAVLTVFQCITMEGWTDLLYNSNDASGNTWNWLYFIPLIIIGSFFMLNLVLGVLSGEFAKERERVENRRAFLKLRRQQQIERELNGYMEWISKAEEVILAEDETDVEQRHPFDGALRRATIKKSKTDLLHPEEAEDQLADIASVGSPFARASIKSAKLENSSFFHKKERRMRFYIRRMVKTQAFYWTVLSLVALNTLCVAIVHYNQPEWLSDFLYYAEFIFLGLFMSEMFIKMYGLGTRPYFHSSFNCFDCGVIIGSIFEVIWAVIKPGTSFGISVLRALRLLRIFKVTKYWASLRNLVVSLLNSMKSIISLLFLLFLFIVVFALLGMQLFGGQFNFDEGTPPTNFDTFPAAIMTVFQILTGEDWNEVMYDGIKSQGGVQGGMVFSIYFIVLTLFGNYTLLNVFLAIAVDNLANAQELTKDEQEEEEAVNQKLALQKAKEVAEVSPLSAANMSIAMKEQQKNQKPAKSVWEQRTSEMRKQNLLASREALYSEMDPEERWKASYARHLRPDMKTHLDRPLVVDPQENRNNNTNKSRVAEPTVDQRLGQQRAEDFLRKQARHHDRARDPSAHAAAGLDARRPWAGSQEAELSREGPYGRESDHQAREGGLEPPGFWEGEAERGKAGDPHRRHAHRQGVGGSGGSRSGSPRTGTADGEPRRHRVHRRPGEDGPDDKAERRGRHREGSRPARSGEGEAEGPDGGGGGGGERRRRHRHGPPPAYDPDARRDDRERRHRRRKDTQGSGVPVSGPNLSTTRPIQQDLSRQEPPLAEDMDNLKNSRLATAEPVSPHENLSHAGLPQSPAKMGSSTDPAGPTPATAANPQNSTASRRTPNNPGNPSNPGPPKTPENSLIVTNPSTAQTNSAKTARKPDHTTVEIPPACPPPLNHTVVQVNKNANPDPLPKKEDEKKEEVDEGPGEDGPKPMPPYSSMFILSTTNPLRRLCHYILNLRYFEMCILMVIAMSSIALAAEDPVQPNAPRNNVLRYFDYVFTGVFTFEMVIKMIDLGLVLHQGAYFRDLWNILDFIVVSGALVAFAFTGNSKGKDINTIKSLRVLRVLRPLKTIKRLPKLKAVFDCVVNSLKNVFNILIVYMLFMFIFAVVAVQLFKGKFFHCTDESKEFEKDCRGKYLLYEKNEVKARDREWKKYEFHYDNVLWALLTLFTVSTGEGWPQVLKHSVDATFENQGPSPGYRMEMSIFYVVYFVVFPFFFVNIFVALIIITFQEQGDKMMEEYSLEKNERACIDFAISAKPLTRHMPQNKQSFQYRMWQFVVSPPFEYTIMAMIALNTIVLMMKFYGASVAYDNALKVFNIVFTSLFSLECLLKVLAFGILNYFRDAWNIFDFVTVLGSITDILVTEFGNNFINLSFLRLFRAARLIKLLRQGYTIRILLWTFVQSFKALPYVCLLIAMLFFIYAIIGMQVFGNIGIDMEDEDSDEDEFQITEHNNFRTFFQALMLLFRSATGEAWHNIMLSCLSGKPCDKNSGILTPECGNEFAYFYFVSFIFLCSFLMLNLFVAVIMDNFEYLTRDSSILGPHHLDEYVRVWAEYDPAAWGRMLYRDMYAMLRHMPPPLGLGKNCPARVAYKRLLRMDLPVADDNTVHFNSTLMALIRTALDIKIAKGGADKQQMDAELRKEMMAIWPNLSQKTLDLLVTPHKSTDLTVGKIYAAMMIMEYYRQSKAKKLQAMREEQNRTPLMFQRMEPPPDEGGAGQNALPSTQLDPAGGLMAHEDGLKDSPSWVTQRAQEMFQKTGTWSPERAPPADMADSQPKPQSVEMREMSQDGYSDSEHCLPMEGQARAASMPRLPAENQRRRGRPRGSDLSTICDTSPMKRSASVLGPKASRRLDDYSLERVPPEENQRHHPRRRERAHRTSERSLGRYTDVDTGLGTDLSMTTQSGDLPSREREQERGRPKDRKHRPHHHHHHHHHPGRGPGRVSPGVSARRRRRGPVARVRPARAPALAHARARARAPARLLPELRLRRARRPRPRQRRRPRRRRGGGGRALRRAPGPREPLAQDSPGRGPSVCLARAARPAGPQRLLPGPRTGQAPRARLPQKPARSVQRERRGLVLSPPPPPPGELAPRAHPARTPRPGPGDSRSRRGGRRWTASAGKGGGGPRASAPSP
T1 sequence (P13806 27-1106 partner): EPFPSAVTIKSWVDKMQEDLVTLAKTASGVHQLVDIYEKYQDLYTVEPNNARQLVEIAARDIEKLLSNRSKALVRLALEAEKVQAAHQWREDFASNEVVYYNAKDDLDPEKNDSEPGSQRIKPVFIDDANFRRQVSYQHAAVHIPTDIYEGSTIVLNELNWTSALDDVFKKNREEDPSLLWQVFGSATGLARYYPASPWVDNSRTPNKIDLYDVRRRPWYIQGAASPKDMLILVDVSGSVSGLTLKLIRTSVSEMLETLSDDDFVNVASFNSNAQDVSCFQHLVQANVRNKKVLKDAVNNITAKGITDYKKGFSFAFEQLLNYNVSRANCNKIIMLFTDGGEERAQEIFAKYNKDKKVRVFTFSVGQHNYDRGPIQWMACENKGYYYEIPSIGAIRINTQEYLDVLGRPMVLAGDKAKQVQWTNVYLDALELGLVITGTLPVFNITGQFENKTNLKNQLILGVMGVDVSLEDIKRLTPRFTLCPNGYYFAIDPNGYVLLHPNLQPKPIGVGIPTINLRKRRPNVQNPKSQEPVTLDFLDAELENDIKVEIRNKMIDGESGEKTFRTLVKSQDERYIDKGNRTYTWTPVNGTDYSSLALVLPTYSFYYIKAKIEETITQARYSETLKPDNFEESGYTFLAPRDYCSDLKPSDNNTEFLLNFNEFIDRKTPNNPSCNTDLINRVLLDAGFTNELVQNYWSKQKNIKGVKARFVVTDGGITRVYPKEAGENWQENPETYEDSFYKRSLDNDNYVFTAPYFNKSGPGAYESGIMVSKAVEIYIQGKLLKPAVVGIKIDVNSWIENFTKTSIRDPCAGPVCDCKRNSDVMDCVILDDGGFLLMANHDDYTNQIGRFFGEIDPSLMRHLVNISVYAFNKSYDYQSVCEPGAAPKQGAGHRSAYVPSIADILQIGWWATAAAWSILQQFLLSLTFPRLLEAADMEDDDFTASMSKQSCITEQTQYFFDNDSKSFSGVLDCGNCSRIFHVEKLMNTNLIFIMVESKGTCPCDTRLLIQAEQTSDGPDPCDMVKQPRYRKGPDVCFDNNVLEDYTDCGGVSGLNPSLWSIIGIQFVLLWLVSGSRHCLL
T1 sequence (P19517 whole entry partner): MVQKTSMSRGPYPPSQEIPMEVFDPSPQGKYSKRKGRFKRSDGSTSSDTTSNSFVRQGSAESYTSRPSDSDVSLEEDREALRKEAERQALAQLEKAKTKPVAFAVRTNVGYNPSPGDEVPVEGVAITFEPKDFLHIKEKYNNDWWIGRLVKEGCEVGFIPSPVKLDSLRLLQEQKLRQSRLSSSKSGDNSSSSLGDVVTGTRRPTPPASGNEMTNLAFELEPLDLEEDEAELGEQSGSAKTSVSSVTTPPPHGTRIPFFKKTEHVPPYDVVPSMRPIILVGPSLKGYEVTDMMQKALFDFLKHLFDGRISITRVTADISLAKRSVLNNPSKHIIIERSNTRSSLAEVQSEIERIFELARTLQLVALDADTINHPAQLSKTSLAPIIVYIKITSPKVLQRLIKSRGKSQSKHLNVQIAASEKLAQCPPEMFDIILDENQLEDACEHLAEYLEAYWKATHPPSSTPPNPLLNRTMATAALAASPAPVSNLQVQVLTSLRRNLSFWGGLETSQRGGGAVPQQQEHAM

## NC(=O)N1c2ccccc2C=Cc2ccccc21 [Carbamazepine]
[1]
  absences in JME: make absence appear for the first time
  effect on JME seizures: can make seizures worse; also recorded: have no effects on or aggravate JME seizures
[1]; listed as carbamezapine
  effect on JME seizures: can make seizures worse
[2]
  Seizure protecting plasma concentrations in humans: 4 to 10 µg/mL

## CCC1(C)CC(=O)NC1=O (centres unmarked) [Ethosuximide]
[1]
  effect on JME seizures: no effects; also recorded: have no effects on or aggravate JME seizures
[2]
  Seizure protecting plasma concentrations in humans: 40 to 100 µg/mL
[3]; thalamic neurons
  T type VDCC: reduce
[3]; thalamic neurons, listed as ethozuximide
  T type VDCC: reduces

## Nc1nnc(-c2cccc(Cl)c2Cl)c(N)n1 [Lamotrigine]
[1]
  effect on JME seizures: seizure-suppressing; also recorded: suppress JME seizures; also recorded: seizure suppressing
[2]
  Seizure protecting plasma concentrations in humans: 3 to 14 µg/mL
[4]
  L type HVDCC: spares
[5]
  P type HVDCC: inhibits
[6]
  N type HVDCC: inhibits

## CC[C@@H](C(N)=O)N1CCCC1=O [Levetiracetam]
[1]
  effect on JME seizures: seizure-suppressing; also recorded: suppress JME seizures; also recorded: seizure suppressing
[2]
  Seizure protecting plasma concentrations in humans: 5 to 45 µg/mL
[3]
  T type VDCC: no effects
[7]; specific type not defined
  high voltage activated calcium currents: depresses

## CCC1(c2ccccc2)C(=O)NC(=O)NC1=O [Phenobarbital]
[2]
  Seizure protecting plasma concentrations in humans: 10 to 40 µg/mL

## O=C1NC(=O)C(c2ccccc2)(c2ccccc2)N1 [Phenytoin]
[1]
  absences in JME: make absence appear for the first time
  effect on JME seizures: can make seizures worse; also recorded: have no effects on or aggravate JME seizures
[2]
  Seizure protecting plasma concentrations in humans: 10 to 20 µg/mL

## CC1(C)O[C@@H]2[C@@H](CO[C@@]3(COS(N)(=O)=O)OC(C)(C)O[C@@H]23)O1 [Topiramate]
[1]
  effect on JME seizures: seizure-suppressing; also recorded: suppress JME seizures; also recorded: seizure suppressing
[2]
  Seizure protecting plasma concentrations in humans: 5 to 10 µg/mL
[4]; 10 μmol/L
  peak of L-type HVDCC: decreased

## CCCC(CCC)C(=O)O [Valproate]
[2]
  Seizure protecting plasma concentrations in humans: 40 to 150 µg/mL

## NS(=O)(=O)Cc1noc2ccccc12 [Zonisamide]
[1]
  effect on JME seizures: suppress JME seizures
[1]; listed as zonizamide
  effect on JME seizures: seizure-suppressing; also recorded: seizure suppressing
[2]
  Seizure protecting plasma concentrations in humans: 15 to 40 µg/mL
[5]; 500 μmol/L
  P-type calcium channel activity: possibly reduces
[3]; 500 μmol/L, cultured fetal rat cortical neurons
  T type LVDCC: reduces
[7]; 500 μmol/L
  HVDCC: does not alter
[6]; 500 μmol/L
  N-type Ca^2+ channel activity: enhances

## CN1C(=O)OC(C)(C)C1=O [trimethadione]
[1]
  effect on JME seizures: no effects in JME
[3]; thalamic neurons
  T type VDCC: reduce

## SNX-482
[8]; mouse hippocampal primary culture neurons
  apoptosis induced by EFHC1 overexpression: specifically suppressed
[8]; surviving cells 48 hours after transfection, antagonist added 3 hrs post transfection
  survival rates of EFHC1-positive neurons: specifically increased

B1: F229L: EFHC1 protein with JME missense mutation F229L (Phe229Leu) (protein)
chain: MVSNPVHGLPFLPGTSFKDSTKTAFHRSQTLSYRNGYAIVRRPTVGIGGDRLQFNQLSQAELDELASKAPVLTYGQPKQAPPADFIPAHVAFDKKVLKFDAYFQEDVPMSTEEQYRIRQVNIYYYLEDDSMSVIEPVVENSGILQGKLIKRQRLAKNDRGDHYHWKDLNRGINITIYGKTFRVVDCDQFTQVFLESQGIELNPPEKMALDPYTELRKQPLRKYVTPSDLDQLKQFLTFDKQVLRFYAIWDDTDSMYGECRTYIIHYYLMDDTVEIREVHERNDGRDPFPLLMNRQRVPKVLVENAKNFPQCVLEISDQEVLEWYTAKDFIVGKSLTILGRTFFIYDCDPFTRRYYKEKFGITDLPRIDVSKREPPPVKQELPPYNGFGLVEDSAQNCFTLIPKAPKKDVIKMLVNDNKVLRYLAVLESPIPEDKDRRFVFSYFLATDMISIFEPPVRNSGIIGGKYLGRTKVVKPYSTVDNPVYYGPSDFFIGAVIEVFGHRFIILDTDEYVLKYMESNAAQYSPEALASIQNHVRKREAPAPEAESKQTEKDPGVQELEALIDTIQKQLKDHSCKDNIREAFQIYDKEASGYVDRDMFFKICESLNVPVDDSLVKELIRMCSHGEGKINYYNFVRAFSN
[9]
  Activation V0.5 (mV): 21.0 ± 3.4 mV
  Inactivation V0.5 (mV): −13.7 ± 2.4 mV
  Activation k (mV): 9.25 ± 0.43 mV
  Inactivation K (mV): 6.53 ± 0.41 mV
[9]; patch-clamp
  inactivation speed of P/Q type VDCC (decelerating effect on calcium inactivation): abolished the decelerating effect
[10]
  cell-death effect (GFP-positive surviving cell numbers): significantly reversed
[11]
  R-type Ca2+ current generated by Cav2.3: significantly suppressed

B2: D253Y: EFHC1 protein with JME missense mutation D253Y (Asp253Tyr) (protein)
chain: B1 chain with L229F, D253Y
[9]; cells co-transfected with P/Q-type VDCC and EFHC1 constructs
  Ca2+ current density of P/Q-type VDCC (Cav2.1): prominently increased
[9]; compared with vector-transfected control P/Q-type-expressing cells
  sustained component of calcium currents: reduced
[9]
  Activation V0.5 (mV): 19.7 ± 2.0 mV
  Inactivation V0.5 (mV): −10.9 ± 1.8 mV
  Activation k (mV): 7.60 ± 0.51 mV
  Inactivation K (mV): 6.08 ± 0.22 mV
[10]
  cell-death effect (GFP-positive surviving cell numbers): significantly reversed
